Consider 17 molecules from patent US8119633B2, “Substituted sulfonamide compounds” (Gruenenthal GmbH, priority 2007, dated 2012).

Read-outs that look alike come from different tables or passages of the source.

Assay [1] addresses T1, human bradykinin receptor 1 (B1R) (Homo sapiens, UniProt P46663).
T1 construct: expressed in transfected cells; host or cells: CHO K1 cells
T1 sequence (P46663 1-353): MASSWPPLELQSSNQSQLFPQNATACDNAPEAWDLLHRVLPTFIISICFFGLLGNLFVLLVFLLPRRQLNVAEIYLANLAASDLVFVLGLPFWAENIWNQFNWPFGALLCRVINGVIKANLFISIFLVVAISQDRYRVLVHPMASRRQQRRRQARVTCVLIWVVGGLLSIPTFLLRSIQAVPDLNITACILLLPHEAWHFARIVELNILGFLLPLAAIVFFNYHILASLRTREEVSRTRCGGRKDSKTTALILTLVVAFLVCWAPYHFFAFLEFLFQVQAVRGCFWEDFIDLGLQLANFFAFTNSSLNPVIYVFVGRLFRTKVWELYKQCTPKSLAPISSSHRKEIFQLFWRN
The assay can be described thus: Functional study on the bradykinin receptor 1 (B1R), human: FLIPR Ca2+ influx assay. The assay is classed as cell-based. The procedure, abridged:
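CHO K1 cells stably expressing human B1R were loaded with Fluo-4, and Ca2+ fluorescence was read on FLIPR (ex 488/em 540 nm). Compound was added first (10 μM for % activation against Lys-Des-Arg9-bradykinin ≥0.5 nM). After 10-20 min, Lys-Des-Arg9-bradykinin was added at EC80 for % inhibition; IC50 came from concentration series, n=2-3, N≥2.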

Assay [2] addresses T2, human μ-opiate receptor (Homo sapiens, UniProt P35372).
T2 construct: purchased PerkinElmer Life Sciences, Zaventem, Belgium RB-HOM; host or cells: CHO-K1 cells (membrane preparation)
The assay can be described thus: Affinity for the human μ-opiate receptor ([3H]-naloxone displacement, SPA). Particulars: test substance 1 μmol/l, inhibition of specific [3H]-naloxone binding, CHO-K1 receptor membrane preparation. The protocol:
Studies of the Effectiveness of the Compounds According to the Invention Method for determining the affinity for the human μ-opiate receptor
The receptor affinity for the human μ-opiate receptor is determined in a homogeneous batch on microtitre plates. To this end, serial dilutions of the substances to be tested are incubated for 90 minutes at room temperature with a receptor membrane preparation (15-40 μg of protein/250 μl of incubation batch) of CHO-K1 cells, which express the human μ-opiate receptor (RB-HOM receptor membrane preparation from PerkinElmer Life Sciences, Zaventem, Belgium), in the presence of 1 nmol/l of the radioactive ligand [^3H]-naloxone (NET719, PerkinElmer Life Sciences, Zaventem, Belgium) and 1 mg of WGA-SPA beads (wheatgerm agglutinin SPA beads from Amersham/Pharmacia, Freiburg, Germany) in a total volume of 250 μl. The incubation buffer used is 50 mmol/l of Tris-HCl supplemented with 0.06 wt. % bovine serum albumin. In order to determine non-specific binding, 100 μmol/l of naloxone is additionally added. When the ninety-minute incubation time has ended, the microtitre plates are centrifuged off for 20 minutes at 1000 g and the radioactivity is measured in a β-counter (Microbeta-Trilux, PerkinElmer Wallac, Freiburg, Germany). The percentage displacement of the radioactive ligand from its binding to the human μ-opiate receptor at a concentration of the test substances of 1 μmol/l is determined and stated as the percentage inhibition of specific binding. On the basis of the percentage displacement by different concentrations of the test substances, IC50 inhibitory concentrations, which effect 50% displacement of the radioactive ligand, are calculated. Ki values for the test substances are obtained by conversion by means of the Cheng-Prusoff equation.

Assay [3] addresses T3, bradykinin receptor 1 (B1R) of the rat (Rattus norvegicus, UniProt P97583).
T3 construct: expressed in transfected cells; host or cells: CHO K1 cells
T3 sequence (P97583 1-337): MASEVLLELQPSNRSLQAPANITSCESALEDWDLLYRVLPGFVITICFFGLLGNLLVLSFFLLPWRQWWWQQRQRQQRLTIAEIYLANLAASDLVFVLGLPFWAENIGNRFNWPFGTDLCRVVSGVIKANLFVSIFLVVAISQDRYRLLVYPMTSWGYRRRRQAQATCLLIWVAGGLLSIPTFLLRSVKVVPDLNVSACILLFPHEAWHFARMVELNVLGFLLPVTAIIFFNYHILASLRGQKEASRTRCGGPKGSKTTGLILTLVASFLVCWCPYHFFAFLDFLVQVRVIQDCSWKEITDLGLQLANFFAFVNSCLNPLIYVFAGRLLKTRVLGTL
The assay can be described thus: Functional study on the bradykinin receptor 1 (B1R), rat: FLIPR Ca2+ influx assay. The assay is classed as cell-based. The procedure, abridged:
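CHO K1 cells stably expressing rat B1R, Fluo-4-loaded, read on FLIPR (ex 488/em 540 nm, peak fluorescence). Test substances added first (agonism vs 10 μM Des-Arg9-bradykinin), then after 10-20 min Des-Arg9-bradykinin at EC80; % inhibition and IC50 from concentration series, n=2-3, N≥2.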

Where [4] appears, read: test substance 10 μM, CHO K1 cells transfected with human B1R, Lys-Des-Arg9-bradykinin at EC80, Ca2+ influx (Fluo-4, FLIPR).
Where [5] appears, read: test substance 10 μM, CHO K1 cells transfected with rat B1R, Des-Arg9-bradykinin at EC80, Ca2+ influx (Fluo-4, FLIPR).
[6] abbreviates: test substance 10 μM, CHO K1 cells transfected with human B1R, Lys-Des-Arg9-bradykinin at EC80, Ca2+ influx (Fluo-4, FLIPR), read-out: B1R antagonism, human [10 μM] % inhibition.
The mark [7] stands for this setting: test substance 10 μM, CHO K1 cells transfected with rat B1R, Des-Arg9-bradykinin at EC80, Ca2+ influx (Fluo-4, FLIPR), read-out: B1R antagonism, rat [10 μM] % inhibition.

T2 sequence (P35372 whole entry): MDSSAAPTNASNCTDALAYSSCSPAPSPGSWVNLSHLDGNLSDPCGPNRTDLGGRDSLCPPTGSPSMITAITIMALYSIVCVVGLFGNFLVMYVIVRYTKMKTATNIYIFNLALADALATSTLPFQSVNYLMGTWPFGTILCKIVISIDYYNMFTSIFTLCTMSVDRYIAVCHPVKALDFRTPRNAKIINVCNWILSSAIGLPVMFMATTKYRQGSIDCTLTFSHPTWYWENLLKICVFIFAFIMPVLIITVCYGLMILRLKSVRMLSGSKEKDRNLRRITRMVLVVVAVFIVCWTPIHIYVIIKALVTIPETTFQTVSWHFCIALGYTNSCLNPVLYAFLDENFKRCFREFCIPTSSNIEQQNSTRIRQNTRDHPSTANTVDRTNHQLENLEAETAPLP

On to “1-(4-(1-(4-methylpiperazin-1-yl)-3-phenylpropyl)piperidin-1-yl)-2-(1-(3-(trifluoromethyl)phenylsulfonyl)piperidin-2-yl)ethanone [Example 112]”, for which, in assay [1] (setting [4]), the “B1R antagonism, human [10 μM] % inhibition” value came to 90%. For the same molecule, the “μ-Opioid receptor [1 μM] % inhibition” value in assay [2] came to 28%. The “B1R antagonism, rat [10 μM] % inhibition” value in assay [3] (setting [5]) worked out at 61%.
For “3-(1-(4-chloro-2,5-dimethylphenylsulfonyl)piperidin-2-yl)-1-(4-((4-methyl-piperazin-1-yl)(phenyl)methyl)piperidin-1-yl)propan-1-one [Example 122]”, in that order: 98%, 47% and 40%.
For “4-(Dimethylaminophenylmethyl)piperidin-1-carboxylic acid {3-[(4-methoxy-2,3,6-trimethylbenzenesulfonyl)methylamino]propyl}amide [Example 4]”, in that order: 54.8%, 100% and 95%.
As for `CN(C)C(c1ccc(F)cc1)C1CCC(CNC(=O)c2ccccc2N(C)S(=O)(=O)c2ccc(Cl)c(Cl)c2)CC1` (stereo not drawn) [Example 40, 2-[(3,4-dichloro-benzenesulfonyl)-methyl-amino]-N-{4-[dimethylamino-(4-fluoro-phenyl)-methyl]-cyclohexylmethyl}-benzamide], the inhibition at 10 µM in assay [1] (setting [6]) worked out at 17.1%; in assay [3] (setting [7]), 20%.
For `CN(C)C(c1ccc(Cl)cc1)C1CCC(CNC(=O)c2ccccc2N(C)S(=O)(=O)c2ccc(Cl)c(Cl)c2)CC1` (stereo not drawn) [Example 41, N-{4-[(4-chloro-phenyl)-dimethylamino-methyl]-cyclohexylmethyl}-2-[(3,4-dichloro-benzenesulfonyl)-methyl-amino]-benzamide], in that order: 22% and 25%.
Consider `CN(C)C(c1ccc(Cl)cc1)C1CCC(CCNC(=O)c2ccccc2N(C)S(=O)(=O)c2ccc(Cl)c(Cl)c2)CC1` (stereo not drawn) [Example 43, N-(2-{4-[(4-chloro-phenyl)-dimethylamino-methyl]-cyclohexyl}-ethyl)-2-[(3,4-dichloro-benzenesulfonyl)-methyl-amino]-benzamide], for which the values for the inhibition at 10 µM in assay [1] (setting [6]) and in assay [3] (setting [7]) were 28.9% and 11%, respectively.
The matching figures for `CN(C)C(c1cccc(F)c1)C1CCC(CCNC(=O)c2ccccc2N(C)S(=O)(=O)c2ccc(Cl)c(Cl)c2)CC1` (stereo not drawn) [Example 44, 2-[(3,4-dichloro-benzenesulfonyl)-methyl-amino]-N-(2-{4-[dimethylamino-(3-fluoro-phenyl)-methyl]-cyclohexyl}-ethyl)-benzamide]: 46.5% and 18%.
On to `CN(C)C(c1ccc(F)cc1)C1CCC(CCNC(=O)c2ccccc2N(C)S(=O)(=O)c2ccc(Cl)c(Cl)c2)CC1` (stereo not drawn) [Example 45, 2-[(3,4-dichloro-benzenesulfonyl)-methyl-amino]-N-(2-{4-[dimethylamino-(4-fluoro-phenyl)-methyl]-cyclohexyl}-ethyl)-benzamide], for which the inhibition at 10 µM in assay [1] (setting [6]) stood at 75.7%; in assay [3] (setting [7]), 26%.
For the molecule `O=C1NCCN(S(=O)(=O)c2ccc(Cl)cc2Cl)C1CC(=O)N1CCC(C(c2ccccc2)N2CCOCC2)CC1` (stereo not drawn) [Example 62, 4-(2,4-dichloro-benzenesulfonyl)-3-{2-[4-(morpholin-4-yl-phenyl-methyl)piperidin-1-yl]-2-oxo-ethyl}-piperazin-2-one], in assay [2] (read-out: μ-Opioid receptor [1 μM] % inhibition), the inhibition at 1 µM stood at 4%. Besides, the inhibition at 10 µM in assay [3] (setting [7]) is 27%.
For `CN(C)C(c1ccccc1)C1CCC(NC(=O)C2Cc3ccccc3N2S(=O)(=O)c2ccc(Cl)c(Cl)c2)CC1` (stereo not drawn) [Example 91, 1-(3,4-dichlorophenylsulfonyl)-N-(4-((dimethylamino)(phenyl)methyl)cyclohexyl)indoline-2-carboxamide], the inhibition at 10 µM in assay [1] (CHO-K1, read-out: B1R antagonism, human [10 μM] % inhibition) was found to be 17.8%; in assay [3] (CHO-K1, read-out: B1R antagonism, rat [10 μM] % inhibition), 8%.
As to `CN(C)C(c1cccc(F)c1)C1CCC(NC(=O)C2Cc3ccccc3N2S(=O)(=O)c2ccc(Cl)c(Cl)c2)CC1` (stereo not drawn) [Example 92, 1-(3,4-dichlorophenylsulfonyl)-N-(4-((dimethylamino)(3-fluorophenyl)methyl)cyclohexyl)indoline-2-carboxamide], the inhibition at 10 µM in assay [1] (setting [6]) was 26%; in assay [3] (setting [7]), -13%.
With `CN(C)C(CCc1ccccc1)C1CCC(NC(=O)C2Cc3ccccc3N2S(=O)(=O)c2ccc(Cl)c(Cl)c2)CC1` (stereo not drawn) [Example 93, 1-(3,4-dichlorophenylsulfonyl)-N-(4-(1-(dimethylamino)-3-phenylpropyl)cyclohexyl)indoline-2-carboxamide], the inhibition at 10 µM in assay [1] (setting [6]) is 15.5%; in assay [3] (setting [7]) it was -24%.
`CN(C)C(c1ccccc1)C1CCC(CNC(=O)C2Cc3ccccc3N2S(=O)(=O)c2ccc(Cl)c(Cl)c2)CC1` (stereo not drawn) [Example 95, 1-(3,4-dichlorophenylsulfonyl)-N-((4-((dimethylamino)(phenyl)methyl)cyclohexyl)methyl)indoline-2-carboxamide]: the values for the inhibition at 10 µM in assay [1] (setting [6]) and in assay [3] (setting [7]) were 18.6% and -15%, respectively.
For `CN(C)C(CCc1ccccc1)C1CCC(CCNC(=O)C2Cc3ccccc3N2S(=O)(=O)c2ccc(Cl)c(Cl)c2)CC1` (stereo not drawn) [Example 97, 1-(3,4-dichlorophenylsulfonyl)-N-(2-(4-(1-(dimethylamino)-3-phenylpropyl)cyclohexyl)ethyl)indoline-2-carboxamide], in that order: 16% and 11%.
The matching figures for `CN(C)C(c1ccccc1)C1CCC(CCNC(=O)Cc2ccccc2N(C)S(=O)(=O)c2ccc(Cl)c(Cl)c2)CC1` (stereo not drawn) [Example 98, 2-(2-(3,4-dichloro-N-methylphenylsulfonamido)phenyl)-N-(2-(4-((dimethylamino)(phenyl)methyl)cyclohexyl)ethyl)acetamide]: 66.8% and -8%.
As to `CN(C)C(CCc1ccccc1)C1CCC(CCNC(=O)Cc2ccccc2N(C)S(=O)(=O)c2ccc(Cl)c(Cl)c2)CC1` (stereo not drawn) [Example 99, 2-(2-(3,4-dichloro-N-methylphenylsulfonamido)phenyl)-N-(2-(4-(1-(dimethylamino)-3-phenylpropyl)cyclohexyl)ethyl)acetamide], the inhibition at 10 µM in assay [1] (setting [6]) is 83.3%; in assay [3] (setting [7]), -7%.
Turning to “N-(3-(4-((4-fluorophenyl)(4-methylpiperazin-1-yl)methyl)piperidin-1-yl)-3-oxo-1-phenylpropyl)naphthalene-2-sulfonamide [Example 117]”, the “μ-Opioid receptor [1 μM] % inhibition” value in assay [2] turned out to be 47%.
